Patent US7390836B2, “Small molecules used to increase cell death” (priority 1999, dated 2008)

Columns and labels:
Jurkat/Bcl-xL cells = test: Cell death in Bcl-xL overexpressing Jurkat cells (MTS, PI, sub-G1, FAM-VAD-fmk); format: cell-based; conditions: for sub-G1 DNA: 100 μM BH3I-1 or 30 μM BH3I-2; for dose at which Bcl-xL overexpression gave no protection / doses from which Bcl-xL overexpression provided protection: 48 hr, MTS or PI
Experimental: If BH3Is act through inhibiting the function of anti-apoptotic members of Bcl-2 family, overexpression of Bcl-xL should provide protection against BH3Is, which can be overcome by increased amount of BH3Is. Furthermore, Bcl-xL overexpressing cells. should still undergo apoptosis when treated with a high enough dose of a BH3I to overcome the protection by Bcl-xL. To test this theory, Jurkat/Bcl-xL cells were treated with BH3I-1 and BH3I-2 for 48 hr. Cell death was determined using the MTS assay (FIG. 9A) or PI staining (FIG. 9B). Overexpression of Bcl-xL provided protection for Jurkat cells from lower doses of BH3Is (up to 40 μM of BH3I-2 and up to 100 μM of BH3I-1). Overexpression of Bcl-xL, however, gave no protection after treatment with 80 μM of BH3I-2 or 200 μM of BH3I-1. […] Caspases were activated in Hoechst-positive dying cells following treatment with high doses of BH3Is.

Jurkat cells = test: Apoptosis in Jurkat cells (TUNEL, sub-G1 DNA, Annexin V); format: cell-based; conditions: BH3I-1 100 μM, BH3I-2 30 μM; for TUNEL staining: 48 hr; for sub-G1 DNA content: 72 hr, PI, FACS
Experimental: FIG. 6C is a series of FACS analysis graphs showing Annexin V staining of Jurkat cells. Jurkat cells were treated with BH3I-1 (100 μM) or BH3I-2 (30 μM) and were stained 4 or 6 hr later with Annexin V-EGFP/PI. The relative amounts of live, apoptotic, and late apoptotic/necrotic cells are shown.
To further examine the ability of BH3Is to induce apoptosis, Jurkat cells were treated with BH3I-1 (100 μM) (FIG. 6A, panels a and b), BH3I-2 (30 μM) (FIG. 6A, panels c and d) or DMSO (FIG. 6A, panels e and f) for 48 hr. The cells were then stained using Hoechst dye and a FragEL TUNEL kit (Oncogene Research Products). […] This was determined by treating Jurkat cells with BH3I-1 (100 μM) or BH3I-2 (30 μM), fixing them 72 hr later, and staining them with propidium iodide (PI). The samples were analyzed by FACS. Finally, BH3Is induced the appearance of Annexin V binding without an increase in PI staining (FIG. 6C).

[1] = test system: Bak BH3 peptide / Bcl-xL (Bcl-xL/GST, Bcl-xL-His6) interaction; test: Fluorescence polarization assay, labeled Bak BH3 peptide binding to Bcl-xL fusion protein; conditions: for order of affinities of BH3Is: overall rank order from FP, NMR, pulldown and SELDI results; for order of decreasing affinity, fluorescence polarization assays: rank order
Excerpt: We have used a fluorescence polarization assay to screen a library of 16,000 chemical compounds (ChemBridge, San Diego, Calif.) to identify small molecules that inhibit the interaction between a peptide corresponding to the BH3 domain of a pro-apoptotic protein and a recombinant Bcl-xL/GST fusion protein. In this assay, an […] peptide corresponding to the BH3 domain of Bak was used. The Bak peptide was labeled with a fluorescent tag, such as OREGON GREEN. Upon binding of the tagged peptide to the Bcl-xL/GST fusion protein, the polarization of light emitted by the tagged peptide is altered. […] Conversely, in a sample in which a compound does inhibit the interaction between the Bak peptide and the Bcl-xL/GST fusion protein the polarization of light emitted by the peptide will not be altered.
A nineteen amino acid Bak peptide, corresponding to the BH3 domain of Bak, with the sequence […] (SEQ ID NO: 2) was labeled with the fluorophore OREGON GREEN according to the manufacturer's instructions (Molecular Probes, Eugene, Oreg.). In addition, a recombinant Bcl-xL/GST fusion protein was generated using conventional techniques known to those skilled in the fields of biochemistry and molecular biology. The interaction between the Bak peptide and the Bcl-xL/GST fusion protein was confirmed.
A screen of approximately 16,000 compounds from the ChemBridge chemical compound library was conducted to identify compounds that disrupt the interaction between the Bak peptide and the Bcl-xL/GST fusion protein. The ability of a compound to disrupt the interaction between the two polypeptides was assessed using a fluorescence polarization assay. The Bak peptide and Bcl-xL/GST fusion protein (15 nM each; dissolved in PBS) were first combined, and then the compound was added. Alternatively, the Bak peptide, Bcl-xL/GST fusion protein, and test compound (5 mg/ml; dissolved in 0.1-0.5 gl of DMSO) may be combined in any order. Normally the unbound Bak polypeptide results in polarization of approximately 40 mP units. Upon binding of the Bcl-xL/GST fusion protein, polarization increased to approximately 100-120 mP units.
In a preferred method, the fluorescence assay was carried out as follows. Bak BH3 peptide (Research Genetics) was labeled using NHS-OREGON GREEN (Molecular Probes) and purified by HPLC. For the initial screening assays, 33 nM of labeled BH3 peptide, 2 μM of GST-Bcl-xL protein, 0.1% bovine gamma globulin (BGG, Sigma) and 1 mM DTT mixed with PBS, pH 7.2 (Gibco) were added into 384 well black plates (Lab Systems) using MULTIDROP (Lab Systems). Small molecules (5 mg/ml in DMSO, ChemBridge) were transferred using plastic 384-pin arrays (Genetix). The plates were incubated for 1-2 hr at 25° C., and the fluorescence polarization assay values were determined using an Analyst plate reader (LJL Biosystems). Reactions containing 16.65 nM of labeled BH3 peptide and 4.2 μM of Bcl-xL-His6 fusion protein, which was previously utilized to characterize BH3/Bcl-xL binding (Sattler et al., Science 275:983-6, 1997) were used for the further fluorescence polarization analyses. Kd and Ki determination was performed as previously described using […] PRISM software package (GraphPad) (Dandliker et al., Methods Enzymol. 74:3-28,1981).
In a further screen, various concentrations of each of the above-identified compounds were evaluated for their potency. A serial dilution of each chemical compound was performed and the fluorescence polarization assay was repeated, as per the primary screen. As a result of the secondary screening, three compounds, chemical compound ID numbers 275805 (BH3I-1; FIG. 1), 282986 (BH3I-1′; FIG. 2), and 175362 (BH3I-2; FIG. 3), collectively termed “BH3Is,” were identified to disrupt the interaction between Bak and the BCL-xL/GST fusion protein. […] Additional homologues of the BH3I-1s (BH3I-1″ and BH3I-1′″) and BH3I-2 (BH3-2″ and BH3I-2″) were also analyzed in the study (FIG. 4). […]

Row | Compound | sub-G1 DNA (Jurkat/Bcl-xL cells) | dose at which Bcl-xL overexpression gave no protection (Jurkat/Bcl-xL cells) | doses from which Bcl-xL overexpression provided protection (Jurkat/Bcl-xL cells) | TUNEL staining (Jurkat cells) | sub-G1 DNA content (Jurkat cells) | order of affinities of BH3Is [1] | order of decreasing affinity, fluorescence polarization assays [1]
1 | CC(C)C(C(=O)O)N1C(=O)C(=Cc2ccc(Br)cc2)SC1=S (stereo in doubt) [BH3I-1] | induced the appearance of sub-GI DNA | 200 µM | up to 100 μM | TUNEL positivity | displayed sub-G1 DNA content | BH312′>BH3I-2>BH3I-2″>BH3I-1>BH3I-1′>BH3I-1″>BH3I-1′″ | BH3I-1>BH3I-1′>BH3I-2′>BH3I-2>BH3I-2″>BH3I-1″
2 | CC(C)C(C(=O)O)N1C(=O)/C(=C/c2ccccc2)SC1=S (stereo not shown) [BH3I-1″] | – | – | – | – | – | BH312′>BH3I-2>BH3I-2″>BH3I-1>BH3I-1′>BH3I-1″>BH3I-1′″ | BH3I-1>BH3I-1′>BH3I-2′>BH3I-2>BH3I-2″>BH3I-1″
3 | O=C(Nc1cc(S(=O)(=O)c2ccc(Cl)cc2)ccc1Cl)c1cc(Cl)cc(Br)c1O [BH3I-2] | induced the appearance of sub-GI DNA | 80 µM | up to 40 μM | TUNEL positivity | displayed sub-G1 DNA content | BH312′>BH3I-2>BH3I-2″>BH3I-1>BH3I-1′>BH3I-1″>BH3I-1′″ | BH3I-1>BH3I-1′>BH3I-2′>BH3I-2>BH3I-2″>BH3I-1″
